In ChEMBL document CHEMBL3885881, “DrugMatrix”:

Species: Rattus norvegicus
Experiment: DrugMatrix - Regimen: Daily Repeat
Type: toxicity, organism-based, Sprague-Dawley
Set-up: regimen Daily Repeat, gender Male, age 6-8 weeks
Conditions: in vivo, iv, vehicle 100 % SALINE; for ABSOLUTE BASOPHIL / ABSOLUTE EOSINOPHIL / ABSOLUTE LYMPHOCYTE / ABSOLUTE MONOCYTE / ABSOLUTE SEGMENTED NEUTROPHIL / BASOPHIL / EOSINOPHIL / ERYTHROCYTE COUNT / HEMATOCRIT / HEMOGLOBIN / LEUKOCYTE COUNT / LYMPHOCYTE / MEAN CORPUSCULAR HEMOGLOBIN / MEAN CORPUSCULAR HEMOGLOBIN CONCENTRATION / MEAN CORPUSCULAR VOLUME / MONOCYTE / NEUTROPHIL / NUCLEATED RED BLOOD CELLS / PLATELET COUNT: tissue Blood; for ALANINE AMINOTRANSFERASE / ALBUMIN / ALKALINE PHOSPHATASE / ASPARTATE AMINOTRANSFERASE / BLOOD UREA NITROGEN / CARBON DIOXIDE / CHLORIDE / CHOLESTEROL / CREATINE PHOSPHOKINASE / CREATININE / GLUCOSE / LACTATE DEHYDROGENASE / LIPASE / PHOSPHORUS / POTASSIUM / SODIUM / TOTAL BILIRUBIN / TOTAL PROTEIN / URIC ACID: tissue Plasma
[1] = 11 mg/kg, 72 h, dose level High, time 3 day
[2] = 11 mg/kg, 120 h, dose level High, time 5 day
[3] = […], 72 h, dose 2.6 mg/Kg, dose level Low, time 3 day
[4] = […], 120 h, dose 2.6 mg/Kg, dose level Low, time 5 day

## Nc1ccn([C@@H]2O[C@H](CO)[C@@H](O)C2(F)F)c(=O)n1 [GEMCITABINE]
[1]
  ABSOLUTE BASOPHIL: 0 CELLS/uL
  ABSOLUTE EOSINOPHIL: 0 CELLS/uL
  ABSOLUTE LYMPHOCYTE: 4311.33 CELLS/uL
  ABSOLUTE MONOCYTE: 21.67 CELLS/uL
  ABSOLUTE SEGMENTED NEUTROPHIL: 200.33 CELLS/uL
  BASOPHIL: 0%
  EOSINOPHIL: 0%
  ERYTHROCYTE COUNT: 5.19 x10E6/uL
  HEMATOCRIT: 33.27%
  HEMOGLOBIN: 13.03 G/DL
  LEUKOCYTE COUNT: 4.53 x10E3/uL
  LYMPHOCYTE: 95%
  MEAN CORPUSCULAR HEMOGLOBIN: 25.07 pg
  MEAN CORPUSCULAR HEMOGLOBIN CONCENTRATION: 39.2 G/DL
  MEAN CORPUSCULAR VOLUME: 63.93 fL
  MONOCYTE: 0.33%
  NEUTROPHIL: 4.67%
  NUCLEATED RED BLOOD CELLS: 0 /100WBC
  PLATELET COUNT: 706.67 x10E3/uL
  ALANINE AMINOTRANSFERASE: 46.67 u/L
  ALBUMIN: 3.5 G/DL
  ALKALINE PHOSPHATASE: 373 u/L
  ASPARTATE AMINOTRANSFERASE: 100.67 u/L
  BLOOD UREA NITROGEN: 15.67 mg/dL
  CARBON DIOXIDE: 24.33 mmol/L
  CHLORIDE: 107.33 MEQ/L
  CHOLESTEROL: 63.33 mg/dL
  CREATINE PHOSPHOKINASE: 316.67 u/L
  CREATININE: 0.13 mg/dL
  GLUCOSE: 143 mg/dL
  LACTATE DEHYDROGENASE: 80.33 u/L
  LIPASE: 8 u/L
  PHOSPHORUS: 9.73 mg/dL
  POTASSIUM: 5.2 MEQ/L
  SODIUM: 145.57 MEQ/L
  TOTAL BILIRUBIN: 0.17 mg/dL
  TOTAL PROTEIN: 4.97 G/DL
  URIC ACID: 1.3 mg/dL
[2]
  ABSOLUTE BASOPHIL: 0 CELLS/uL
  ABSOLUTE EOSINOPHIL: 12.67 CELLS/uL
  ABSOLUTE LYMPHOCYTE: 2696.33 CELLS/uL
  ABSOLUTE MONOCYTE: 10 CELLS/uL
  ABSOLUTE SEGMENTED NEUTROPHIL: 47.67 CELLS/uL
  BASOPHIL: 0%
  EOSINOPHIL: 0.33%
  ERYTHROCYTE COUNT: 8.1 x10E6/uL
  HEMATOCRIT: 50%
  HEMOGLOBIN: 19.4 G/DL
  LEUKOCYTE COUNT: 2.77 x10E3/uL
  LYMPHOCYTE: 97.67%
  MEAN CORPUSCULAR HEMOGLOBIN: 24 pg
  MEAN CORPUSCULAR HEMOGLOBIN CONCENTRATION: 38.9 G/DL
  MEAN CORPUSCULAR VOLUME: 61.67 fL
  MONOCYTE: 0.33%
  NEUTROPHIL: 1.67%
  NUCLEATED RED BLOOD CELLS: 0.33 /100WBC
  PLATELET COUNT: 374.33 x10E3/uL
  ALANINE AMINOTRANSFERASE: 34.67 u/L
  ALBUMIN: 3.5 G/DL
  ALKALINE PHOSPHATASE: 152.67 u/L
  ASPARTATE AMINOTRANSFERASE: 232 u/L
  BLOOD UREA NITROGEN: 36.67 mg/dL
  CARBON DIOXIDE: 26.33 mmol/L
  CHLORIDE: 107 MEQ/L
  CHOLESTEROL: 104.67 mg/dL
  CREATINE PHOSPHOKINASE: 2721.33 u/L
  CREATININE: 0.23 mg/dL
  GLUCOSE: 286.33 mg/dL
  LACTATE DEHYDROGENASE: 384.67 u/L
  LIPASE: 10.33 u/L
  PHOSPHORUS: 10.93 mg/dL
  POTASSIUM: 4.87 MEQ/L
  SODIUM: 146.9 MEQ/L
  TOTAL BILIRUBIN: 0.1 mg/dL
  TOTAL PROTEIN: 6.03 G/DL
  URIC ACID: 1.6 mg/dL
[3]
  ABSOLUTE BASOPHIL: 0 CELLS/uL
  ABSOLUTE EOSINOPHIL: 0 CELLS/uL
  ABSOLUTE LYMPHOCYTE: 7048.67 CELLS/uL
  ABSOLUTE MONOCYTE: 0 CELLS/uL
  ABSOLUTE SEGMENTED NEUTROPHIL: 484.67 CELLS/uL
  BASOPHIL: 0%
  EOSINOPHIL: 0%
  ERYTHROCYTE COUNT: 5.03 x10E6/uL
  HEMATOCRIT: 31.87%
  HEMOGLOBIN: 12.73 G/DL
  LEUKOCYTE COUNT: 7.53 x10E3/uL
  LYMPHOCYTE: 93.67%
  MEAN CORPUSCULAR HEMOGLOBIN: 25.37 pg
  MEAN CORPUSCULAR HEMOGLOBIN CONCENTRATION: 39.97 G/DL
  MEAN CORPUSCULAR VOLUME: 63.43 fL
  MONOCYTE: 0%
  NEUTROPHIL: 6.33%
  NUCLEATED RED BLOOD CELLS: 0 /100WBC
  PLATELET COUNT: 1190.67 x10E3/uL
  ALANINE AMINOTRANSFERASE: 55.33 u/L
  ALBUMIN: 4.03 G/DL
  ALKALINE PHOSPHATASE: 332.67 u/L
  ASPARTATE AMINOTRANSFERASE: 110 u/L
  BLOOD UREA NITROGEN: 16.67 mg/dL
  CARBON DIOXIDE: 25 mmol/L
  CHLORIDE: 97.67 MEQ/L
  CHOLESTEROL: 76.67 mg/dL
  CREATINE PHOSPHOKINASE: 485.33 u/L
  CREATININE: 0.14 mg/dL
  GLUCOSE: 175.33 mg/dL
  LACTATE DEHYDROGENASE: 141.67 u/L
  LIPASE: 9 u/L
  PHOSPHORUS: 12.07 mg/dL
  POTASSIUM: 6.4 MEQ/L
  SODIUM: 141.6 MEQ/L
  TOTAL BILIRUBIN: 0.2 mg/dL
  TOTAL PROTEIN: 5.93 G/DL
  URIC ACID: 1.5 mg/dL
[4]
  ABSOLUTE BASOPHIL: 0 CELLS/uL
  ABSOLUTE EOSINOPHIL: 0 CELLS/uL
  ABSOLUTE LYMPHOCYTE: 4224 CELLS/uL
  ABSOLUTE MONOCYTE: 19 CELLS/uL
  ABSOLUTE SEGMENTED NEUTROPHIL: 23.67 CELLS/uL
  BASOPHIL: 0%
  EOSINOPHIL: 0%
  ERYTHROCYTE COUNT: 5.09 x10E6/uL
  HEMATOCRIT: 32.1%
  HEMOGLOBIN: 12.83 G/DL
  LEUKOCYTE COUNT: 4.27 x10E3/uL
  LYMPHOCYTE: 99%
  MEAN CORPUSCULAR HEMOGLOBIN: 25.2 pg
  MEAN CORPUSCULAR HEMOGLOBIN CONCENTRATION: 39.97 G/DL
  MEAN CORPUSCULAR VOLUME: 63.1 fL
  MONOCYTE: 0.33%
  NEUTROPHIL: 0.67%
  NUCLEATED RED BLOOD CELLS: 0.33 /100WBC
  PLATELET COUNT: 699.67 x10E3/uL
  ALANINE AMINOTRANSFERASE: 46.33 u/L
  ALBUMIN: 4.17 G/DL
  ALKALINE PHOSPHATASE: 368 u/L
  ASPARTATE AMINOTRANSFERASE: 127.67 u/L
  BLOOD UREA NITROGEN: 13.33 mg/dL
  CARBON DIOXIDE: 24.67 mmol/L
  CHLORIDE: 104 MEQ/L
  CHOLESTEROL: 70.67 mg/dL
  CREATINE PHOSPHOKINASE: 350.33 u/L
  CREATININE: 0.12 mg/dL
  GLUCOSE: 151.67 mg/dL
  LACTATE DEHYDROGENASE: 93.33 u/L
  LIPASE: 8 u/L
  PHOSPHORUS: 11.03 mg/dL
  POTASSIUM: 6.21 MEQ/L
  SODIUM: 143.67 MEQ/L
  TOTAL BILIRUBIN: 0.1 mg/dL
  TOTAL PROTEIN: 6.03 G/DL
  URIC ACID: 1.63 mg/dL
